Holding throughout (assay type): cell-based
Assay [1] deals with BT549 cells. Put plainly: Gene expression by qRT-PCR (TUBB reference). How it is done:
(§1) Cell culture and drug treatments. Cell lines were obtained from ATCC (American Type Culture Collection, Manassas, VA) and grown under standard conditions (5% CO2, 10% FBS (fetal bovine serum), with 5% antifungal/antibacterial). Cell lines were tested for Mycoplasma using the MycoAlert Mycoplasma Detection Kit (Lonza, Basel Switzerland, cat: LT07-218); all experiments were done with mycoplasma negative cells. U87MG cells were propagated in MEM (Minimal Essential Medium). BT549 and DBTRG cells were propagated in RPMI (Roswell Park Memorial Institute 1640 Medium). LN18, U118MG, A172 and LN229 cells were propagated in DMEM (Dulbecco's Modified Eagle Medium). Neurosphere/cancer stem cell cultures for U87MG and BT549 cell lines were plated with 40,000 cells per mL in 3D Tumorsphere Medium XF (Sigma cat: C-28070, Burlington, MA). BT549 cancer stem cell cultures were supplemented with 1XB27 XenoFree CTS (Gibco/Thermo Fisher Waltham, MA, USA). AS1842856 was purchased from Calbiochem (Danvers, MA) and utilized at 200 nM, 500 nM and 1 μM final concentrations as indicated. AS1708727 was purchased from MedChem Express (Monmouth Junction, NJ) and was used at 0.5 μM, 1.0 µM and 2.0 μM concentrations. 5-aza-2'-deoxycytidine (5-AZA) was purchased from Millipore/Sigma (Burlington, MA) and utilized at a final concentration of 3 μM. Total RNA was prepared using the Qiagen RNeasy kit (Hilden, Germany), which was then used to generate cDNA using Superscript Reverse Transcriptase II (Invitrogen, Carlsbad, CA). Samples (cDNAs) were analyzed using (Power SYBR Green Master Mix, Applied Biosystems, Foster City, CA) and the ABI Step-One Real-time system (Carlsbad, CA). Expression levels were normalized to Beta-Tubulin, TUBB in gene expression experiments and calculated using 2-4ACT method (Livak et al., 2001). Primer sequences are detailed in Table 1. MDA-MB-468 cells were grown to log phase in DMEM with 10% FBS without antibiotics. BT549 cells were grown to log phase in DMEM with 10% FBS without antibiotics. Cells were transfected with FOXO1 esiRNA (EHU156591 Sigma, St. Louis, MO) or EGFP control esiRNA (EHUEGFP) using Lipofectamine 3000 (utilized only […] reagent, Invitrogen, Carlsbad, CA).

Assay [2] deals with MDA-MB-468 cells. In words: Gene expression by qRT-PCR (TUBB reference). As for the experimental part:
as §1

In assay [3] the test system is LN18. In words: Colony formation assay (crystal violet). Particulars: treated five days. As for the experimental part: (§2) Cell culture and drug treatments. Cell lines were obtained from ATCC (American Type Culture Collection, Manassas, VA) and grown under standard conditions (5% CO2, 10% FBS (fetal bovine serum), with 5% antifungal/antibacterial). Cell lines were tested for Mycoplasma using the MycoAlert Mycoplasma Detection Kit (Lonza, Basel Switzerland, cat: LT07-218); all experiments were done with mycoplasma negative cells. U87MG cells were propagated in MEM (Minimal Essential Medium). BT549 and DBTRG cells were propagated in RPMI (Roswell Park Memorial Institute 1640 Medium). LN18, U118MG, A172 and LN229 cells were propagated in DMEM (Dulbecco's Modified Eagle Medium). Neurosphere/cancer stem cell cultures for U87MG and BT549 cell lines were plated with 40,000 cells per mL in 3D Tumorsphere Medium XF (Sigma cat: C-28070, Burlington, MA). BT549 cancer stem cell cultures were supplemented with 1XB27 XenoFree CTS (Gibco/Thermo Fisher Waltham, MA, USA). AS1842856 was purchased from Calbiochem (Danvers, MA) and utilized at 200 nM, 500 nM and 1 μM final concentrations as indicated. AS1708727 was purchased from MedChem Express (Monmouth Junction, NJ) and was used at 0.5 μM, 1.0 µM and 2.0 μM concentrations. 5-aza-2′-deoxycytidine (5-AZA) was purchased from Millipore/Sigma (Burlington, MA) and utilized at a final concentration of 3 μM. Cells were plated at a density of 2,700 cells per mL and were treated five days with indicated drug. Treatments were investigated in triplicate (in numerous independent experiments) and stained with crystal violet. Plates were aspirated of media then each well was washed with 1.0 mL of 1x phosphate buffered saline (PBS) once before being stained with 1.0 mL of crystal violet stain (0.5% crystal violet in buffered formalin) and incubated for 15 minutes. The stain was aspirated, and wells were washed 3 times with 0.5 mL of 1x PBS. After collections were completed, crystal violet-stained plates were solubilized using 0.5 mL on each well of 10% acetic acid and placed on shaker for 1 hour. Solubilized samples were transferred to 96 well plates and quantified on a spectrophotometer at 590 nm. Quantified plates were analyzed with a Tukey test. Error bars were added using the standard deviation. Cells were plated at 2,700 cells per mL and were treated five days with the indicated drug. Treatments were investigated in triplicate (in numerous independent experiments) and stained with crystal violet. Plates were aspirated of media, then each well was washed with 1.0 mL of 1× phosphate-buffered saline (PBS) once before being stained with 1.0 mL of crystal violet stain (0.5% crystal violet in buffered formalin) and incubated for 15 minutes. The stain was aspirated, and cells were washed three times with 0.5 mL of 1×PBS. After collections were completed, crystal violet-stained plates were solubilized using 0.5 mL on each well of 10% acetic acid and placed on a shaker for 1 hour. Solubilized samples were transferred to 96 well plates and quantified on a spectrophotometer at 590 nm using iMark Microplate Absorbance Reader (Bio-Rad, Hercules, CA). Quantified plates were analyzed with a Tukey Test. Error bars were added using the standard deviation.

The subject of assay [4] is BT549. Put plainly: Colony formation assay (crystal violet). To be noted: treated five days. As for the experimental part: as §2
Assay [5] deals with MDA-MB-468. Put plainly: Colony formation assay (crystal violet). To be noted: treated five days.

As for `Nc1ncn([C@H]2C[C@H](O)[C@@H](CO)O2)c(=O)n1` [5-AZA, 5-aza-2′-deoxycytidine], the “FAS and BIM expression” value in assay [1] (3 μM for 48 hours) was “induced FAS and BIM”.

Take `CN(C(=O)CC1CCCC1)c1ccc(Cl)c(COc2cccc3cnccc23)c1Cl` [AS1708727, 2-cyclopentyl-N-[2,4-dichloro-3-(isoquinolin-5-yloxymethyl)phenyl] N-methylacetamide]: the “FAS and BIM gene induction, comparison of the two inhibitors” value in assay [2] and in assay [1] was “only induced the FAS gene” each time. The FAS gene expression result is recorded as “increased FAS gene expression” in assay [2] (four days, 1 μM for two days) and “increased FAS gene expression” in assay [1] (1 μM treatment for 4 days). For the same compound, the colony formation result in assay [3], in assay [4] and in assay [5] was “reduced colony formation” throughout.

Values taken from patent publication US20240409934A1, “FOXO1-TARGETED THERAPY FOR THE TREATMENT OF CANCER” (BOARD OF REGENTS, THE UNIVERSITY OF TEXAS SYSTEM, priority 2021, published 2024).
